In general, inhibition refers to the share of the control response that was lost under treatment. The term EC50 denotes the concentration needed to bring the measured effect to its halfway point. A low value points to higher potency in that assay.

14 compounds from US10206908B2, “3-(1H-pyrrolo[3,2-C]pyridin-2-YL)-1H-pyrazolo[3,4-C]pyridines and therapeutic uses thereof” (Samumed, LLC, priority 2015, dated 2019) can be followed below.

Some results are limits rather than exact numbers.

What all share (format): cell-based
The subject of assay [1] is Wnt activity (Sp5-Luc reporter, SW480 colon carcinoma cells). Briefly: Screening assay for Wnt activity: Sp5-Luc reporter gene assay in SW480 colon carcinoma cells. The settings on record: Homo sapiens; for inhibition at 10 µM: SW480, read-out: percent inhibition at 10 μM; for EC50: Sp5-Luc reporter, SW480 cells, overnight incubation. The text has this:
The screening assay for Wnt activity is described as follows. Reporter cell lines can be generated by stably transducing cancer cell lines (e.g., colon cancer) or primary cells (e.g., IEC-6 intestinal cells) with a lentiviral construct that includes a Wnt-responsive promoter driving expression of the firefly luciferase gene.
SW480 colon carcinoma cells were transduced with a lentiviral vector expressing luciferase with a human Sp5 promoter consisting of a sequence of eight TCF/LEF binding sites. SW480 cells stably expressing the Sp5-Luc reporter gene and a hygromycin resistance gene were selected by treatment with 150 μg/mL of hygromycin for 7 days. These stably transduced SW480 cells were expanded in cell culture and used for all further screening activities. […] For Sp5-Luc reporter gene assays, the cells were plated at 4,000 cells/well in 384-well plates with medium containing 1% fetal bovine serum and incubated overnight at 37° C. and 5% CO2. Following incubation, 20 μl of BrightGlo luminescence reagent (Promega) was added to each well of the 384-well assay plates. The plates were placed on an orbital shaker for 2 min and then luminescence was quantified using the Envision (Perkin Elmer) plate reader. Readings were normalized to DMSO only treated cells, and normalized activities were utilized for EC50 calculations using the dose-response log (inhibitor) vs. response-variable slope (four parameters) nonlinear regression feature available in GraphPad Prism 5.0 (or Dotmatics).
(In general: In a reporter assay the amount or activity of a reporter protein is the signal.)

The test system of the next assay is SW480 colon cancer cells. Kind of assay: Cell viability assay (CellTiter-Blue) in SW480 colon cancer cells. The settings on record: Homo sapiens; for EC50: 96 h, SW480 cell viability, four days; for inhibition at 10 µM: SW480, read-out: percent inhibition at 10 μM. How it is done: Representative compounds were screened using the following assay procedure to assess the effect on cell viability as described below.
Approximately 2×10^3 SW480 colon cancer cells were seeded into each well and allowed to incubate in the presence or absence of compound for four days at 37° C./5% CO2. Eight replicates of DMSO-treated cells served as controls and cells treated with compound were performed in duplicate.
After incubation, 20 μL of CellTiter-Blue (Promega) was added to each well allowed to incubate for approximately 3 hours. This reagent was a buffered solution which contains resazurin, metabolically active cells were able to reduce rezarurin (blue) into resorufin (pink) which was highly fluorescent. This measured fluorescence was used as a readout for cell viability.

Assay [2] has as its system primary human fibroblasts derived from IPF patients (LL29 cells) treated with TGF-β1. Kind of assay: Inhibition of the fibrotic process: αSMA staining in TGF-β1 treated LL29 fibroblasts. The settings on record: Fibroblast; for EC50: 96 h, % αSMA positive LL29 cells, TGF-β1 20 ng/mL, 4 days; for inhibition at 10 µM: read-out: percent inhibition at 10 μM. The procedure: Representative compounds were screened using primary human fibroblasts (derived from IPF patients) treated with TGF-β1 to determine their ability to inhibit the fibrotic process.
LL29 cells are plated at 1,500 cells/well in 80 μL/well F12 medium supplemented with 1% Fetal Bovine Serum. […] Wells treated with TGF-β1 and containing DMSO were used as controls. […] Following incubation for 4 days, SYTOX green nucleic acid stain (Life Technologies [Thermo Fisher Scientific]) was added to the wells at a final concentration of 1 μM and incubated at room temperature for 30 min.

The subject of a further assay is IL-6 (THP-1 cells). Kind of assay: IL-6 inhibition in LPS-stimulated THP-1 monocytes (HTRF). The settings on record: Homo sapiens; for inhibition at 10 µM: THP-1, read-out: percent inhibition at 10 μM; for EC50: IL-6, THP-1 cells, LPS 500 ng/mL, 22 hours. The procedure: Compound Screening: THP-1 cells were cultured in basal media with 1% FBS for 24 hours before the start of the assay. […] THP-1 cells were plated at 5000 cells/well in the 384-well plates and incubated at 37° C. for 2 h. 500 ng/mL of LPS was added after 2 hours and cells were incubated for another 22 hours at 37° C. Plates were spun in a centrifuge for 1 minute at […] and a mixture of anti-IL6 XL665, and anti-IL6 Cryptate diluted in reconstitution buffer (Cisbio Inc.) was added to each well. Following incubation for 3 hrs at room temperature, Homogeneous Time-Resolved Fluorescence (HTRF) was measured using the Envision (Perkin Elmer) at 665 nm and […]. The ratio of fluorescence at 665 nm to 620 nm was used as a readout for IL6 quantification. All samples were processed in duplicate. Readings were normalized to DMSO treated cells and normalized activities were utilized for EC50 calculations using the dose-response log (inhibitor) vs. response-variable slope (four parameters) nonlinear regression feature available in GraphPad Prism 5.0 (or Dotmatics).
A general note: Time-resolved FRET reads energy transfer from a long-lived donor to a nearby acceptor.

For the compound `Fc1cccc(-c2nccc3[nH]c(-c4n[nH]c5cnc(C6CCNCC6)cc45)cc23)c1` [Compound 505, 3-(4-(3-Fluorophenyl)-1H-pyrrolo[3,2-c]pyridin-2-yl)-5-(piperidin-4-yl)-1H-pyrazolo[3,4-c]pyridine], the inhibition at 10 µM in assay [1] was 28.3%; with SW480 colon cancer cells, 5.2%; in assay [2], 0%; in the assay with IL-6 (THP-1 cells), 16.4%. Further, the EC50 (in assay [1]; in the assay on SW480 colon cancer cells; in assay [2]; with IL-6 (THP-1 cells)) was over 10000 nM throughout.

Regarding `O=C(Nc1cncc(-c2cc3c(-c4cc5c(-c6cccc(F)c6)nccc5[nH]4)n[nH]c3cn2)c1)c1ccccc1` [Compound 11, N-(5-(3-(4-(3-Fluorophenyl)-1H-pyrrolo[3,2-c]pyridin-2-yl)-1H-pyrazolo[3,4-c]pyridin-5-yl)pyridin-3-yl)benzamide], the EC50 in assay [1] is 3820 nM; in the assay with SW480 colon cancer cells, over 10000 nM; in assay [2], over 10000 nM; with IL-6 (THP-1 cells) it was over 10000 nM. Further, the inhibition at 10 µM was 34.7% in the assay on SW480 colon cancer cells, 0% in assay [2] and 26.9% in the assay with IL-6 (THP-1 cells).

As to `CC(C)(C)C(=O)Nc1cncc(-c2cc3c(-c4cc5c(-c6cccc(F)c6)nccc5[nH]4)n[nH]c3cn2)c1` [Compound 8, N-(5-(3-(4-(3-Fluorophenyl)-1H-pyrrolo[3,2-c]pyridin-2-yl)-1H-pyrazolo[3,4-c]pyridin-5-yl)pyridin-3-yl)pivalamide], the EC50 was 1180 nM in assay [1], 1720 nM in the assay with SW480 colon cancer cells, 627 nM in assay [2] and 940 nM in the assay with IL-6 (THP-1 cells).

As to `c1ccc(-c2cc3c(-c4cc5c(-c6cccs6)nccc5[nH]4)n[nH]c3cn2)nc1` [Compound 364, 5-(Pyridin-2-yl)-3-(4-(thiophen-2-yl)-1H-pyrrolo[3,2-c]pyridin-2-yl)-1H-pyrazolo[3,4-c]pyridine], the EC50 worked out at 4040 nM in assay [1], 4140 nM in the assay with SW480 colon cancer cells, 3120 nM in assay [2] and 3300 nM in the assay with IL-6 (THP-1 cells).

Take `c1cc2[nH]c(-c3n[nH]c4cnc(-c5cncc(OC6CCCCC6)c5)cc34)cc2c(N2CCCCC2)n1` [Compound 607, 5-(5-(Cyclohexyloxy)pyridin-3-yl)-3-(4-(piperidin-1-yl)-1H-pyrrolo[3,2-c]pyridin-2-yl)-1H-pyrazolo[3,4-c]pyridine]: the EC50 in assay [1] was 1440 nM; with SW480 colon cancer cells it was 1100 nM; in assay [2] it was 1140 nM; with IL-6 (THP-1 cells) it was 3810 nM.

On to `O=C(Nc1cncc(-c2cc3c(-c4cc5c(-c6cccc(F)c6)nccc5[nH]4)n[nH]c3cn2)c1)C1CCCCC1` [Compound 23, N-(5-(3-(4-(3-Fluorophenyl)-1H-pyrrolo[3,2-c]pyridin-2-yl)-1H-pyrazolo[3,4-c]pyridin-5-yl)pyridin-3-yl)cyclohexanecarboxamide], for which the EC50 in assay [1] amounted to 1230 nM; in the assay on SW480 colon cancer cells, 1440 nM; in assay [2] it was 678 nM; in the assay on IL-6 (THP-1 cells), 2030 nM.

`CC(C)Nc1cncc(-c2cc3c(-c4cc5c(-c6ccc(F)cc6)nccc5[nH]4)n[nH]c3cn2)c1` [Compound 40, 5-(3-(4-(4-Fluorophenyl)-1H-pyrrolo[3,2-c]pyridin-2-yl)-1H-pyrazolo[3,4-c]pyridin-5-yl)-N-isopropylpyridin-3-amine]: the EC50 turned out to be 343 nM in assay [1], 773 nM in the assay on SW480 colon cancer cells, 56 nM in assay [2] and 380 nM with IL-6 (THP-1 cells).

As to `CC(C)(C)CC(=O)Nc1cncc(-c2cc3c(-c4cc5c(-c6cc(F)cc(CNS(C)(=O)=O)c6)nccc5[nH]4)n[nH]c3cn2)c1` [Compound 492, N-(5-(3-(4-(3-Fluoro-5-(methylsulfonamidomethyl)phenyl)-1H-pyrrolo[3,2-c]pyridin-2-yl)-1H-pyrazolo[3,4-c]pyridin-5-yl)pyridin-3-yl)-3,3-dimethylbutanamide], the inhibition at 10 µM in assay [1] stood at 17.3%; with SW480 colon cancer cells, 8.6%; in assay [2], 1.8%; in the assay on IL-6 (THP-1 cells) it was 4.6%. Besides, the EC50 (in assay [1]; in the assay with SW480 colon cancer cells; in assay [2]; with IL-6 (THP-1 cells)) was over 10000 nM throughout.

On to `CC(C)CC(=O)Nc1cncc(-c2cc3c(-c4cc5c(-c6cccnc6)nccc5[nH]4)n[nH]c3cn2)c1` [Compound 86, 3-Methyl-N-(5-(3-(4-(pyridin-3-yl)-1H-pyrrolo[3,2-c]pyridin-2-yl)-1H-pyrazolo[3,4-c]pyridin-5-yl)pyridin-3-yl)butanamide], for which the inhibition at 10 µM in assay [1] worked out at 29.9%; with SW480 colon cancer cells, 3.6%; in the assay with IL-6 (THP-1 cells) it was 0%. Moreover, the EC50 in assay [1] was over 10000 nM; with SW480 colon cancer cells it was over 10000 nM; in assay [2], 1920 nM; in the assay on IL-6 (THP-1 cells) it was over 10000 nM.

In the case of `c1cncc(-c2cc3c(-c4cc5c(-c6ccoc6)nccc5[nH]4)n[nH]c3cn2)c1` [Compound 312, 3-(4-(Furan-3-yl)-1H-pyrrolo[3,2-c]pyridin-2-yl)-5-(pyridin-3-yl)-1H-pyrazolo[3,4-c]pyridine], the EC50 stood at 1030 nM in assay [1], 844 nM in the assay with SW480 colon cancer cells, 294 nM in assay [2] and 1010 nM in the assay with IL-6 (THP-1 cells).

`c1cncc(-c2cc3c(-c4cc5c(N6CCCCC6)nccc5[nH]4)n[nH]c3cn2)c1` [Compound 172, 3-(4-(Piperidin-1-yl)-1H-pyrrolo[3,2-c]pyridin-2-yl)-5-(pyridin-3-yl)-1H-pyrazolo[3,4-c]pyridine]: the EC50 in assay [1] is 632 nM; with SW480 colon cancer cells, over 10000 nM; in assay [2], over 10000 nM; in the assay on IL-6 (THP-1 cells), over 10000 nM. The inhibition at 10 µM in the assay on SW480 colon cancer cells was 10.8%; in assay [2] it was 0%; in the assay with IL-6 (THP-1 cells), 0%.

`CC(C)Nc1cncc(-c2cc3c(-c4cc5c(N6CCCCC6)nccc5[nH]4)n[nH]c3cn2)c1` [Compound 180, N-Isopropyl-5-(3-(4-(piperidin-1-yl)-1H-pyrrolo[3,2-c]pyridin-2-yl)-1H-pyrazolo[3,4-c]pyridin-5-yl)pyridin-3-amine]: the EC50 in assay [1] was found to be 2450 nM; in the assay on SW480 colon cancer cells, 4160 nM; in assay [2] it was 2600 nM; in the assay with IL-6 (THP-1 cells), 3390 nM.

For the compound `c1cc2[nH]c(-c3n[nH]c4cnc(-c5cncc(CN6CCCC6)c5)cc34)cc2c(N2CCCCC2)n1` [Compound 182, 3-(4-(Piperidin-1-yl)-1H-pyrrolo[3,2-c]pyridin-2-yl)-5-(5-(pyrrolidin-1-ylmethyl)pyridin-3-yl)-1H-pyrazolo[3,4-c]pyridine], the inhibition at 10 µM was found to be 12.7% in assay [1], 13% in the assay on SW480 colon cancer cells, 0% in assay [2] and 0% with IL-6 (THP-1 cells). For the same compound, the EC50 (in assay [1]; in the assay with SW480 colon cancer cells; in assay [2]; in the assay with IL-6 (THP-1 cells)) was over 10000 nM each time.

Consider `O=C(Cc1ccccc1)Nc1cncc(-c2cc3c(-c4cc5c(-c6ccccc6F)nccc5[nH]4)n[nH]c3cn2)c1` [Compound 66, N-(5-(3-(4-(2-Fluorophenyl)-1H-pyrrolo[3,2-c]pyridin-2-yl)-1H-pyrazolo[3,4-c]pyridin-5-yl)pyridin-3-yl)-2-phenylacetamide], for which the EC50 in assay [1] was found to be 2000 nM; in the assay on SW480 colon cancer cells, 1850 nM; in assay [2] it was 3310 nM; in the assay with IL-6 (THP-1 cells), 3250 nM.
